Data reported in ChEMBL document CHEMBL1129683, “Thermodynamic aspects of hydrophobicity and the blood-brain barrier permeability studied with a gel filtration chromatography” (J Med Chem, 1996).

Assay: Micelle/water partition coefficient (Pmic) of the compound was determined
Assay type: physicochemical
Details: buffer

Row | Compound | Log Pmic
1 | NC(N)=S [THIOUREA] | 0.48
2 | Cc1cc(=O)n(-c2ccccc2)n1C [ANTIPYRINE] | 0.58
3 | CNC(=O)c1cccnc1 [NICOTINYL METHYLAMIDE] | 0.39
4 | O=c1[nH]c(=O)n(C2CCCO2)cc1F (configuration not stated) [TEGAFUR] | 0.7
5 | Cc1ncc([N+](=O)[O-])n1CCO [METRONIDAZOLE] | 0.54
6 | NC=O [FORMAMIDE] | -0.35
7 | CCc1nc(N)nc(N)c1-c1ccc(Cl)cc1 [PYRIMETHAMINE] | 2.51
8 | COc1cccc2c1C(=O)c1c(O)c3c(c(O)c1C2=O)C[C@@](O)(C(=O)CO)C[C@@H]3O[C@H]1C[C@H](N)[C@H](O)[C@H](C)O1 [DOXORUBICIN] | 1.9
9 | O=c1[nH]cc(F)c(=O)[nH]1 [FLUOROURACIL] | 0.21
10 | CN1CC(=O)NC1=N [CREATININE] | -0.3
11 | CC[C@]1(O)C[C@H]2CN(CCc3c([nH]c4ccccc34)[C@@](C(=O)OC)(c3cc4c(cc3OC)N(C=O)[C@H]3[C@@](O)(C(=O)OC)[C@H](OC(C)=O)[C@]5(CC)C=CCN6CC[C@]43[C@@H]65)C2)C1 [VINCRISTINE] | 2.48
12 | NC(N)=O [UREA] | -0.12
